Source: patent US6218393A, “Anthranilic acid derivatives as multi drug resistance modulators” (priority 1997, dated 2001)

What was measured:
[1] = test system: AR 1.0 cells; assay: Drug accumulation assay: daunorubicin accumulation in AR 1.0 cells; format: cell-based; conditions: Mus musculus, 100% = accumulation with verapamil 100 μM, 1 hr, 37° C.
Method in brief: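 Daunorubicin accumulation was measured in cells plated 48 h beforehand. These were AR 1.0 cells, an MDR-resistant derivative of mouse EMT6 mammary carcinoma, cultured at 37 °C in 5% CO2 in RPMI 1640 plus 10% foetal calf serum and 2 mM glutamine.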

[2] = test system: AR 1.0 cells; assay: Potentiation of doxorubicin toxicity: proliferation assay (sulphorhodamine B); format: cell-based, mouse
Text: (a) Selected compounds of formula (I) were examined for their ability to potentiate the toxicity of doxorubicin in AR 1.0 cells.

[3] = test system: AR 1.0 cells; assay: Potentiation index with doxorubicin titration; format: cell-based, mouse; conditions: for Potentiation Index at RMA concentration 100 nM: Table C2, RMA 100 nM; for Potentiation Index at RMA concentration 300 nM: Table C2, RMA 300 nM; for Potentiation Index at RMA concentration 500 nM: Table C2, RMA 500 nM; for Potentiation Index at RMA concentration 10 nM: Table C2, RMA 10 nM; for Potentiation Index at RMA concentration 30 nM: Table C2, RMA 30 nM
Method in brief: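 Doxorubicin IC50 in AR 1.0 cells (MDR subline of EMT6 mouse mammary carcinoma) determined by sulphorhodamine B after 4-day culture across 0.263 nM-17.24 μM, with and without a fixed dose of test compound; their ratio gives the PI.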

[4] = Mus musculus, 96 h, compound alone, four day proliferation, read-out: Compound Toxicity (IC50)
[5] = with fixed doxorubicin 0.34 μm, four days, 5760 min, read-out: Toxicity with Cytotoxic Agent (IC50)

Row | Structure (SMILES) | IC50 [1] | IC50 [2, 4] | IC50 [2, 5] | Potentiation Index at RMA concentration 100 nM [3] | Potentiation Index at RMA concentration 300 nM [3] | Potentiation Index at RMA concentration 500 nM [3] | Potentiation Index at RMA concentration 10 nM [3] | Potentiation Index at RMA concentration 30 nM [3]
1 | COc1cc2c(cc1OC)CN(CCc1ccc(NC(=O)c3ccccc3NC(=O)c3cccc(C)c3)cc1)CC2 [compound 9503, 2-(3-Methyl-benzoylamino)-N-{4-[2-(6,7-dimethoxy-3,4-dihydro-1H-isoquinolin-2-yl)-ethyl]-phenyl}-benzamide] | 2000 nM | 3500 nM | 90 nM | – | 36 | 77 | – | –
2 | COc1cc2c(cc1OC)CN(CCc1ccc(NC(=O)c3ccccc3NC(=O)c3ccccc3O)cc1)CC2 [compound 9535] | 450 nM | 2600 nM | 15 nM | 32 | 128 | – | – | –
3 | COc1cc2c(cc1OC)CN(CCNC(=O)c1cc(Br)ccc1NC(=O)c1ccc(C(C)C)cc1)CC2 [compound 9394, 2-(4-Isopropyl-benzoylamino)-N-[2-(6,7-dimethoxy-3,4-dihydro-1H-isoquinolin-2-yl)-ethyl]-5-bromo-benzamide] | 3400 nM | 10000 nM | – | – | – | 12 | – | –
4 | COc1cc2c(cc1OC)CN(CCc1ccc(NC(=O)c3ccccc3NC(=O)c3ccncc3)cc1)CC2 [compound 9483, N-(2-{4-[2-(6,7-Dimethoxy-3,4-dihydro-1H-isoquinolin-2-yl)-ethyl]-phenylcarbamoyl}-phenyl}-isonicotinamide] | 1700 nM | 8500 nM | 350 nM | – | 14 | 24 | – | –
5 | COc1cccc(C(=O)Nc2ccccc2C(=O)Nc2ccc(CCN3CCc4cc(OC)c(OC)cc4C3)cc2)c1 [compound 9517, 2-(3-Methoxy-benzoclamino)-N-{4-[2-(6,7-dimethoxy-3,4-dihydro-1H-isoquinolin-2-yl)-ethyl]-phenyl}-benzamide] | 400 nM | 2000 nM | 50 nM | – | 40 | 120 | – | –
6 | COc1cc2c(cc1OC)CN(CCc1ccc(NC(=O)c3ccccc3NC(=O)c3ccccc3C)cc1)CC2 [compound 9497, 2-(2-Methyl-benzoylamino)-N-{4-[2-(6,7-dimethoxy-3,4-dihydro-1H-isoquinolin-2-yl}-ethyl]-phenyl}-benzamide] | 1600 nM | 9000 nM | 80 nM | – | 52 | 200 | – | –
7 | CCCCCc1ccc(C(=O)Nc2ccccc2C(=O)NCCN2CCc3cc(OC)c(OC)cc3C2)cc1 [compound 9395, 2-(4-Pentyl-benzoylamino)-N-[2-(6,7-dimethoxy-3,4-dihydro-1H-isoquinolin-2-yl)-ethyl]-benzamide] | 1300 nM | 9000 nM | 150 nM | – | – | 21 | – | –
8 | COc1cc2c(cc1OC)CN(CCc1ccc(NC(=O)c3ccccc3NC(=O)c3cccc4ccccc34)cc1)CC2 [compound 9470] | 1300 nM | 3500 nM | 75 nM | – | 26 | 90 | – | –
9 | COc1cc2c(cc1OC)CN(CCNC(=O)c1ccccc1NC(=O)c1ccc(Cc3ccccc3)cc1)CC2 [compound 9442, 2-(4-Benzyl-benzoylamino)-N-[2-(6,7-dimethoxy-3,4-dihydro-1H-isoquinolin-2-yl)-ethyl]-benzamide] | 1000 nM | 7200 nM | 50 nM | – | 27 | 67 | – | –
10 | COc1cc2c(cc1OC)CN(CCNC(=O)c1cccc(O)c1NC(=O)c1ccc(C(C)C)cc1)CC2 [compound 9424, 2-(4-Isopropyl-benzoylamino)-N-[2-(6,7-dimethoxy-3,4-dihydro-1H-isoquinolin-2-yl)-ethyl]-3-hydroxy-benzamide] | 2500 nM | 39000 nM | 2600 nM | – | – | 37 | – | –
11 | COc1ccc(C(=O)Nc2ccccc2C(=O)Nc2ccc(CCN3CCc4cc(OC)c(OC)cc4C3)cc2)cc1 [compound 9518, 2-(4-Methoxy-benzoylamino)-N-{4-[2-(6,7-dimethoxy-3,4-dihydro-1H-isoquinolin-2-yl)-ethyl]-phenyl}-benzamide] | 300 nM | 1500 nM | 19 nM | – | 120 | 240 | – | –
12 | COc1cc2c(cc1OC)CN(CCc1ccc(NC(=O)c3ccccc3NC(=O)c3cc4ccccc4o3)cc1)CC2 [compound 9539, Benzofuran-2-carboxylic acid (2-{4-[2-(6,7-dimethoxy-3,4-dihydro-1H-isoquinolin-2-yl)-ethyl]-phenylcarbamoyl}-phenyl)-amide] | 220 nM | 1700 nM | 11 nM | 32 | 128 | – | – | –
13 | COc1cc2c(cc1OC)CN(CCc1ccc(NC(=O)c3ccccc3NC(=O)c3ccc(C)cc3)cc1)CC2 [compound 9504, 2-(4-Methyl-benzoylamino)-N-{4-[2-(6,7-dimethoxy-3,4-dihydro-1H-isoquinolin-2-yl)-ethyl]-phenyl}-benzamide] | 260 nM | 5000 nM | 60 nM | 34 | 150 | 267 | – | –
14 | COc1cc2c(cc1OC)CN(CCc1ccc(NC(=O)c3ccccc3NC(=O)c3ccccc3Cl)cc1)CC2 [compound 9494] | 400 nM | 9000 nM | 50 nM | – | 38 | 148 | – | –

Further compounds by falling IC50 [1], results first:

Row | IC50 [1] | Structure (SMILES) | IC50 [2, 4] | IC50 [2, 5] | Potentiation Index at RMA concentration 100 nM [3] | Potentiation Index at RMA concentration 300 nM [3] | Potentiation Index at RMA concentration 500 nM [3] | Potentiation Index at RMA concentration 10 nM [3] | Potentiation Index at RMA concentration 30 nM [3]
15 | 220 nM | COc1cc2c(cc1OC)CN(CCc1ccc(NC(=O)c3ccccc3NC(=O)c3ccc(C)c(C)c3)cc1)CC2 [compound 9538, 2-(3,4-Dimethyl-benzoylamino)-N-{4-[2-(6,7-dimethoxy-3,4-dihydro-1H-isoquinolin-2-yl)-ethyl]-phenyl}-benzamide] | 2300 nM | 14 nM | 43 | 128 | – | – | –
16 | 150 nM | COc1cc2c(cc1OC)CN(CCc1ccc(NC(=O)c3ccccc3NC(=O)c3ccccc3F)cc1)CC2 [compound 9489, 2-(2-Fluoro-benzoylamino)-N-{4-[2-(6,7-dimethoxy-3,4-dihydro-1H-isoquinolin-2-yl)-ethyl]-phenyl}-benzamide] | 7000 nM | 50 nM | 77 | 192 | 303 | – | –
17 | 130 nM | COc1cc2c(cc1OC)CN(CCc1ccc(NC(=O)c3ccc(NO)cc3NC(=O)c3cnc4ccccc4n3)cc1)CC2 [compound 9542, Quinoxaline-2-carboxylic acid (2-{4-[2-(6,7-dimethoxy-3,4-dihydro-1H-isoquinolin-2-yl)-ethyl]-phenylcarbamoyl}-5-hydroxyamino-phenyl)-amide] | 1900 nM | 14 nM | 128 | 160 | – | – | –
18 | 55 nM | COc1cc2c(cc1OC)CN(CCc1ccc(NC(=O)c3ccc(C(F)(F)F)cc3NC(=O)c3cnc4ccccc4n3)cc1)CC2 [compound 9561, Quinoxaline-2-carboxylic acid (2-{4-[2-(6,7-dimethoxy-3,4-dihydro-1H-isoquinolin-2-yl)-ethyl]-phenylcarbamoyl}-5-trifiuoromethyl-phenyl)-amide] | 13000 nM | 10 nM | 100 | – | – | 14 | 60
19 | 40 nM | COc1cc2c(cc1OC)CN(Cc1ccc(NC(=O)c3ccccc3NC(=O)c3cnc4ccccc4c3)cc1)CC2 [compound 9585, Quinoline-3-carboxylic acid {2-[4-(6,7-dimethoxy-3,4-dihydro-1H-isoquinolin-2-ylmethyl)-phenylcarbamoyl]-phenyl}-amide] | 9200 nM | – | – | – | – | 1.3 | 7.2
20 | 35 nM | COc1cc2c(cc1OC)CN(CCc1ccc(NC(=O)c3ccccc3NC(=O)c3cnc4ccccc4n3)cc1)CC2 [compound 9531, Quinoxaline-2-carboxylic. acid (2-{4-[2-(6,7-dimethoxy-3,4-dihydro-1H-isoquinolin-2-yl)-ethyl]-phenylcarbamoyl}-phenyl)-amide] | 1100 nM | 5 nM | 150 | 160 | – | 30 | 120
21 | 14 nM | COc1cc2c(cc1OC)CN(CCc1ccc(NC(=O)c3cc(Cl)ccc3NC(=O)c3cnc4ccccc4c3)cc1)CC2 [compound 9593, Quinoline-3-carboxylic acid (2-{4-[2-(6,7-dimethoxy-3,4-dihydro-1H-isoquinolin-2-yl)-ethyl]-phenylcarbamoyl}-4-chloro-phenyl)-amide] | 7000 nM | – | – | – | – | 6 | 57
